# Measured values: US20230159527A1, “COMPOUNDS AS BCL-2 INHIBITORS” (Fochon Pharmaceuticals, Ltd., priority 2020, published 2023)
# Experiments:
# Assay type in all cases: cell-based
# RS4;11 cells = assay: Cell proliferation assay, RS4;11 cells (MTS, 72 h); conditions: Homo sapiens, RS4;11 cell proliferation
# Procedure, shortened: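 RS4;11 cells (30000/well, RPMI-1640 plus 10% FBS) treated with compounds at 1.5-10000 nM for 72 h at 37° C, 5% CO2. Viability by MTS (2 h), absorbance at 490 nm with 650 nm reference; IC50 from proliferation inhibition.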
# DoHH2 cells = assay: Cell proliferation assay, DoHH2 cells (MTS, 120 h); conditions: Homo sapiens, DOHH-2
# Procedure, shortened: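 DoHH2 cells in RPMI-1640 with 10% FBS were plated at 5000/well and rested 4 h. They were then exposed to compound at nine final concentrations (10000 to 1.5 nM) for 120 h at 37 °C. Viability was read by MTS (2 h, A490) and IC50 derived by curve fitting.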
# Toledo cells = assay: Cell proliferation assay, Toledo cells (MTS, 72 h); conditions: Homo sapiens, Toledo cells, MTS, read-out: Toledo IC50
# Procedure, shortened: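 Toledo cells (30000/well, RPMI-1640 with 10% FBS) were preincubated for 4 h. They were then exposed to nine compound concentrations from 10000 to 1.5 nM for 72 h at 37 °C, 5% CO2. MTS was added for 2 h and absorbance read at 490 nm to give IC50.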
Compound,IC50 (RS4;11 cells) [nM],IC50 (DoHH2 cells) [nM],IC50 (Toledo cells) [nM]
"CN1CCN(C2CC3(CCN(c4ccc(C(=O)NS(=O)(=O)c5cnc(NCC6CCOCC6)c([N+](=O)[O-])c5)c(Oc5cnc6[nH]ccc6c5)c4)CC3)C2)[C@H](c2ccccc2C2CC2)C1 (single isomer, unassigned) [Example A-39a, (R or S)-2-((1H-pyrrolo[2,3-b]pyridin-5-yl)oxy)-4-(2-(2-(2-cyclopropyl-phenyl)-4-methylpiperazin-1-yl)-7-azaspiro[3.5]nonan-7-yl)-N-((5-nitro-6-(((tetrahydro-2H-pyran-4-yl)methyl)amino)pyridin-3-yl)sulfonyl) benzamide]",≤ 1,≤ 1,1
"C[C@]1(O)CC[C@H](CNc2ncc(S(=O)(=O)NC(=O)c3ccc(N4CCC5(CC4)CC(N4CCNC[C@H]4c4ccccc4C4CC4)C5)cc3Oc3cnc4[nH]ccc4c3)cc2[N+](=O)[O-])CC1 [Example A-37, 2-((1H-pyrrolo[2,3-b]pyridin-5-yl)oxy)-4-(2-((R)-2-(2-cyclopropyl-phenyl)piperazin-1-yl)-7-azaspiro [3.5]nonan-7-yl)-N-((6-((((1r,4r)-4-hydroxy-4-methylcyclohexyl)methyl)amino)-5-nitropyridin-3-yl)sulfonyl)benzamide]",≤ 1,≤ 1,1
"O=C(NS(=O)(=O)c1cnc(NCC2C3COCC23)c([N+](=O)[O-])c1)c1ccc(N2CCC3(CC2)CC(N2CCC[C@@H]2c2ccccc2C2CC2)C3)cc1Oc1cnc2[nH]ccc2c1 (stereo partly drawn) [Example A-30b, 2-((1H-pyrrolo[2,3-b]pyridin-5-yl)oxy)-N-((6-(((3-oxabicyclo[3.1.0]hexan-6-yl)methyl)amino)-5-nitro-pyridin-3-yl)sulfonyl)-4-(2-((R)-2-(2-cyclopropylphenyl)pyrrolidine-1-yl)-7-azaspiro[3.5]nonan-7-yl)benzamide]",≤ 1,≤ 1,1
"O=C(NS(=O)(=O)c1cnc(NCC2C3COCC23)c([N+](=O)[O-])c1)c1ccc(N2CCC3(CC2)CC(N2CCC4C[C@]42c2ccccc2C2CC2)C3)cc1Oc1cnc2[nH]ccc2c1 (single isomer, unassigned) [Example A-97b, 2-((1H-pyrrolo[2,3-b]pyridin-5-yl)oxy)-N-((6-(((3-oxabicyclo[3.1.0]hexan-6-yl)methyl)amino)-5-nitro-pyridin-3-yl)sulfonyl)-4-(2-((1R or 1S)-1-(2-cyclopropylphenyl)-2-aza-bicyclo[3.1.0]hexan-2-yl)-7-azaspiro [3.5]nonan-7-yl)benzamide]",≤ 1,≤ 1,6

# Now from value to molecule, other results behind:
IC50 (RS4;11 cells) [nM],Compound,IC50 (DoHH2 cells) [nM],IC50 (Toledo cells) [nM]
≤ 1,"CC(C)c1ccccc1[C@H]1CCCN1C1CC2(CCN(c3ccc(C(=O)NS(=O)(=O)c4cnc(NCC5C6COCC56)c([N+](=O)[O-])c4)c(Oc4cnc5[nH]ccc5c4)c3)CC2)C1 (stereo partly drawn) [Example A-27b, 2-((1H-pyrrolo[2,3-b]pyridin-5-yl)oxy)-N-((6-(((3-oxabicyclo[3.1.0]hexan-6-yl)methyl)amino)-5-nitro-pyridin-3-yl)sulfonyl)-4-(2-((R)-2-(2-isopropylphenyl)pyrrolidin-1-yl)-7-azaspiro[3.5]nonan-7-yl) benzamide]",≤ 1,1
≤ 1,"CC1(O)CCC(CNc2ncc(S(=O)(=O)NC(=O)c3ccc(N4CCC5(CC4)CC(N4CCOC[C@H]4c4ccccc4C4CC4)C5)cc3Oc3cnc4[nH]ccc4c3)cc2[N+](=O)[O-])CC1 (single isomer, unassigned) [Example A-34, (R or S)-2-((1H-pyrrolo[2,3-b]pyridin-5-yl)oxy)-4-(2-(3-(2-cyclopropylphenyl)morpholino)-7-azaspiro[3.5]nonan-7-yl)-N-((6-(((4-hydroxy-4-methylcyclohexyl)methyl)amino)-5-nitropyridin-3-yl)sulfonyl) benzamide]",≤ 1,7
